According to patent US20190030053A1, “COMPOSITION FOR INCREASING EXPRESSION OF PGC-1alpha” (BENEBIOSIS CO., LTD., priority 2016, published 2019):

Tested on: 3T3-L1 adipocytes
Test: Oil-Red O staining of intracellular fat in differentiated adipocytes
Type: cell-based
Details: differentiated 3T3-L1 adipocytes, 0.01-10 mM, 10 days
Description: 3T3-L1 adipocytes were purchased from Korean Cell Line Bank. For the culture and maintenance of 3T3-L1 adipocytes, the cells were subcultured in Dulbecco's modified Eagle's medium (DMEM, Welgene, Korea) supplemented with 10% bovin calf serum (FCS, Welgene, Korea) in a 5% CO2 incubator at 37° C. 3T3-L1 adipocytes were divided into six groups as follows: NT; Normal differentiated cell group (control group), sialyllactose test group; 1, 10, 100, 1000, and 10000 μM test groups treated with sialyllactose (SL, Sigma-Aldrich, USA). For cell differentiation, the cells were dispensed in 6-well plates at a density of 2×10^5 cells per well, and grown to 100% confluency. […]
After differentiation in 6-well plates, 3T3-L1 adipocytes treated with […] or 6’-sialyllactose were washed two times with PBS, and then 2 ml of 10% formalin (Sigma-Aldrich, USA) was added thereto to fix the adipocytes at room temperature for 10 minutes. […] Thereafter, 1 ml of 100% isopropanol (Sigma-Aldrich, USA) was added to effuse stained adipocytes, and then the amount of accumulated fat was measured using absorbance at 500 nm.

**Q.** With CC(=O)N[C@H]1[C@H]([C@H](O)[C@H](O)CO)O[C@@](OC[C@H]2O[C@@H](O[C@H]3[C@H](O)[C@@H](O)[C@H](O)O[C@@H]3CO)[C@H](O)[C@@H](O)[C@H]2O)(C(=O)O)C[C@@H]1O [6′-SL, α-NeuNAc-(2→6)-β-D-Gal-(1→4)-D-Glc] as the molecule, how does the “intracellular fat (Oil Red O)” value (listed as 6′-siallylactose) read?
**A.** Its value is “greatly reduced”.

**Q.** What about the “intracellular fat (Oil Red O)” value (listed as 6′-sialyllactose) of the same molecule?
**A.** Its value is “significantly reduced intracellular fat”.
